This note sets out measurements from patent US20230278983A1, “INDOLE DERIVATIVES AND USES THEREOF FOR TREATING A CANCER” (Universite Claude Bernard Lyon 1, priority 2020, published 2023).

Each structure is given as a SMILES string.

Sequence of CK2 (P68400 whole entry): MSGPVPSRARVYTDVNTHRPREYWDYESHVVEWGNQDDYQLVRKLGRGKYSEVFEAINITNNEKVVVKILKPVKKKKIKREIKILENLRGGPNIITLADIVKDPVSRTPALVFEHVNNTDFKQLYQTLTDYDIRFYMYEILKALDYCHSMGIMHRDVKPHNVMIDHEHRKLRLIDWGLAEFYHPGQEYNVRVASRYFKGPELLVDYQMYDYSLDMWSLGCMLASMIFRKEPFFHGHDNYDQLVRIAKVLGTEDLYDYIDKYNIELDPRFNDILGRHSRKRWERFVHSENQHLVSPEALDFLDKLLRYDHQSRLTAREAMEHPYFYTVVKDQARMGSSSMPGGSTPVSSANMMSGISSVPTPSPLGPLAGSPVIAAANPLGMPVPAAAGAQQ

The first assay has as its target CK2 (Homo sapiens (Human), UniProt P68400). Briefly: Radiometric CK2 kinase assay. The assay is classed as biochemical.
Settings: not given
As to `Cc1noc(C)c1-c1ccc(S(=O)(=O)NCCN2CCC(Cn3cc(-c4c(C(=O)C5CC5)[nH]c5ccc(F)cc45)nn3)CC2)cc1` [AB1285, N-(2-(4-((4-(2-(cyclopropanecarbonyl)-5-fluoro-1H-indol-3-yl)-1H-1,2,3-triazol-1-yl)methyl)piperidin-1-yl)ethyl)-4-(3,5-dimethylisoxazol-4-yl)benzenesulfonamide], it took 930 nM to reach half-maximal inhibition (IC50). On to `CC(=O)c1[nH]c2ccc(F)cc2c1-c1cn(CC2CCN(CCNS(=O)(=O)c3ccc(-c4c(C)noc4C)cc3)CC2)nn1` [AB1286, N-(2-(4-((4-(2-acetyl-5-fluoro-1H-indol-3-yl)-1H-1,2,3-triazol-1-yl)methyl)piperidin-1-yl)ethyl)-4-(3,5-dimethylisoxazol-4-yl)benzenesulfonamide], for which half-maximal inhibition (IC50) was put at 430 nM.

For `CC(=O)c1[nH]c2ccc(F)cc2c1-c1cn(CC2CCN(CCNS(=O)(=O)c3ccc(-c4c(F)cccc4F)cc3)CC2)nn1` [AB1288, N-(2-(4-((4-(2-acetyl-5-fluoro-1H-indol-3-yl)-1H-1,2,3-triazol-1-yl)methyl)piperidin-1-yl)ethyl)-2′,6′-difluoro-[1,1′-biphenyl]-4-sulfonamide], the IC50 (as a rule, the point on the concentration scale where inhibition reaches its midpoint) worked out at 78 nM. On the same count and under the same terms, under `COCc1ccccc1-c1ccc(S(=O)(=O)NCCN2CCC(Cn3cc(-c4c(C(=O)OCC(C)C)[nH]c5ccc(F)cc45)nn3)CC2)cc1` [AB1303] stands 33 nM. Still for that read-out and setting: under `CC(=O)c1[nH]c2ccc(F)cc2c1-c1cn(CC2CCN(CCNS(=O)(=O)c3ccc(CC4CC4)cc3)CC2)nn1` [AB1317, N-(2-(4-((4-(2-acetyl-5-fluoro-1H-indol-3-yl)-1H-1,2,3-triazol-1-yl)methyl)piperidin-1-yl)ethyl)-4-(cyclopropylmethyl)benzenesulfonamide] stands 310 nM; under `CC(=O)c1[nH]c2ccc(F)cc2c1-c1cn(C[C@H]2CCN(CCNS(=O)(=O)c3ccc(CC(C)C)cc3)C2)nn1` [AB1318], 300 nM.

The same assay, now with this note: compound at 0.10 μM; ATP 10 μM.
`CC(C)Cc1ccc(S(=O)(=O)NCCN2CCC(Cn3cc(-c4c(C(=O)c5cccnc5)[nH]c5ccc(F)cc45)nn3)CC2)cc1` [AB1301, N-(2-(4-((4-(5-fluoro-2-nicotinoyl-1H-indol-3-yl)-1H-1,2,3-triazol-1-yl)methyl)piperidin-1-yl)ethyl)-4-isobutylbenzenesulfonamide]: the inhibition (commonly how much of the control response was suppressed) at 0.1 µM was determined as 3%. Compound `CCC(C)C(=O)c1[nH]c2ccc(F)cc2c1-c1cn(CC2CCN(CCNS(=O)(=O)c3ccc(CC(C)C)cc3)CC2)nn1` (centres unmarked) [AB1302, N-(2-(4-((4-(5-fluoro-2-(2-methylbutanoyl)-1H-indol-3-yl)-1H-1,2,3-triazol-1-yl)methyl)piperidin-1-yl)ethyl)-4-isobutylbenzenesulfonamide] gave an inhibition at 0.1 µM of 10%. Compound `CCCC(=O)c1[nH]c2ccc(F)cc2c1-c1cn(CC2CCN(CCNS(=O)(=O)Cc3ccc(C(F)(F)F)cc3)CC2)nn1` [AB1307, N-(2-(4-((4-(2-butyryl-5-fluoro-1H-indol-3-yl)-1H-1,2,3-triazol-1-yl)methyl)piperidin-1-yl)ethyl)-1-(4-(trifluoromethyl)phenyl)methanesulfonamide] gave an inhibition at 0.1 µM of 12%. The same measure, in the same setting: under `CC(=O)c1[nH]c2ccc(F)cc2c1-c1cn(CC2CCN(CCNS(=O)(=O)Cc3ccc(C(F)(F)F)cc3)CC2)nn1` [AB1315, N-(2-(4-((4-(2-acetyl-5-fluoro-1H-indol-3-yl)-1H-1,2,3-triazol-1-yl)methyl)piperidin-1-yl)ethyl)-1-(4-(trifluoromethyl)phenyl)methanesulfonamide] stands 27%. For `CC(=O)c1[nH]c2ccc(F)cc2c1-c1cn(C[C@@H]2CCN(CCNS(=O)(=O)c3ccc(CC(C)C)cc3)C2)nn1` [AB1319], at 0.1 µM the inhibition was 33%. With `CC(=O)c1[nH]c2ccc(F)cc2c1-c1cn(C2CCN(CCNS(=O)(=O)c3ccc(CC(C)C)cc3)CC2)nn1` [AB1321, N-(2-(4-(4-(2-acetyl-5-fluoro-1H-indol-3-yl)-1H-1,2,3-triazol-1-yl)piperidin-1-yl)ethyl)-4-isobutylbenzenesulfonamide], the inhibition at 0.1 µM was found to be 4%. For `CC(=O)c1[nH]c2ccc(F)cc2c1-c1cn(CC2CCN(CCNS(=O)(=O)N3CCC(c4cccnc4F)CC3)CC2)nn1` [AB1322, N-(2-(4-((4-(2-acetyl-5-fluoro-1H-indol-3-yl)-1H-1,2,3-triazol-1-yl)methyl)piperidin-1-yl)ethyl)-4-(2-fluoropyridin-3-yl)piperidine-1-sulfonamide], the inhibition at 0.1 µM amounted to 10%. The compound `CC(=O)c1[nH]c2ccc(F)cc2c1-c1cn(CC2CCN(CCNS(=O)(=O)c3ccc(-c4ccccc4F)cc3)CC2)nn1` [AB1390, N-(2-(4-((4-(2-acetyl-5-fluoro-1H-indol-3-yl)-1H-1,2,3-triazol-1-yl)methyl)piperidin-1-yl)ethyl)-2′-fluoro-[1,1′-biphenyl]-4-sulfonamide] had an inhibition at 0.1 µM of 36%. The compound `CC(=O)c1[nH]c2ccc(F)cc2c1-c1cn(CC2CCN(CCNS(=O)(=O)c3ccc(-c4c(C#N)cccc4C(F)(F)F)cc3)CC2)nn1` [AB1393, N-(2-(4-((4-(2-acetyl-5-fluoro-1H-indol-3-yl)-1H-1,2,3-triazol-1-yl)methyl)piperidin-1-yl)ethyl)-2′-cyano-6′-(trifluoromethyl)-[1,1′-biphenyl]-4-sulfonamide] showed an inhibition at 0.1 µM of 31%.

The assay is the same for the next values; noted with them: inhibition of CK2 activity; ATP 10 μM.
As to `CC(=O)c1[nH]c2ccc(F)cc2c1-c1cn(CC2CCN(CCNS(=O)(=O)c3ccc(-c4cccnc4F)cc3)CC2)nn1` [AB1289, N-(2-(4-((4-(2-acetyl-5-fluoro-1H-indol-3-yl)-1H-1,2,3-triazol-1-yl)methyl)piperidin-1-yl)ethyl)-4-(2-fluoropyridin-3-yl)benzenesulfonamide], inhibition was half-maximal at 440 nM (IC50).

Compound `O=C(c1[nH]c2ccc(F)cc2c1-c1cn(CC2CCN(CCNS(=O)(=O)N3CCC(c4c(F)cccc4F)CC3)CC2)nn1)C1CC1` [AB1304, N-(2-(4-((4-(2-(cyclopropanecarbonyl)-5-fluoro-1H-indol-3-yl)-1H-1,2,3-triazol-1-yl)methyl)piperidin-1-yl)ethyl)-4-(2,6-difluorophenyl)piperidine-1-sulfonamide] had an IC50 of 500 nM. Consider `O=C(c1[nH]c2ccc(F)cc2c1-c1cn(CC2CCN(CCNS(=O)(=O)Cc3ccc(C(F)(F)F)cc3)CC2)nn1)C1CC1` [AB1305, N-(2-(4-((4-(2-(cyclopropanecarbonyl)-5-fluoro-1H-indol-3-yl)-1H-1,2,3-triazol-1-yl)methyl)piperidin-1-yl)ethyl)-1-(4-(trifluoromethyl)phenyl)methanesulfonamide], for which the concentration for half-maximal inhibition (IC50) came to 480 nM. The same measure, in the same setting: under `CC(C)CC(=O)c1[nH]c2ccc(F)cc2c1-c1cn(CC2CCN(CCNS(=O)(=O)Cc3ccc(C(F)(F)F)cc3)CC2)nn1` [AB1306, N-(2-(4-((4-(5-fluoro-2-(3-methylbutanoyl)-1H-indol-3-yl)-1H-1,2,3-triazol-1-yl)methyl)piperidin-1-yl)ethyl)-1-(4-(trifluoromethyl)phenyl)methanesulfonamide] stands 450 nM. The compound `CC(=O)c1[nH]c2ccc(F)cc2c1-c1cn(CC2CCN(CCNS(=O)(=O)N3CCC(c4c(F)cccc4F)CC3)CC2)nn1` [AB1316, N-(2-(4-((4-(2-acetyl-5-fluoro-1H-indol-3-yl)-1H-1,2,3-triazol-1-yl)methyl)piperidin-1-yl)ethyl)-4-(2,6-difluorophenyl)piperidine-1-sulfonamide] returned an IC50 of 280 nM.
